Experimental data from publication PMC3894180, “GABAA Receptors Containing ρ1 Subunits Contribute to In Vivo Effects of Ethanol in Mice” (PLoS ONE, 2014).

Target: T1, human GABAA ρ2 receptor (homomeric) (Homo sapiens, UniProt P28476)
T1 construct: gene GABRR2; full-length homomeric pentamer; cRNA from pGEMHE vector injected into Xenopus laevis oocytes
Assay: two-electrode voltage clamp, Xenopus oocytes
Format: cell-based

T1 sequence (P28476 21-465): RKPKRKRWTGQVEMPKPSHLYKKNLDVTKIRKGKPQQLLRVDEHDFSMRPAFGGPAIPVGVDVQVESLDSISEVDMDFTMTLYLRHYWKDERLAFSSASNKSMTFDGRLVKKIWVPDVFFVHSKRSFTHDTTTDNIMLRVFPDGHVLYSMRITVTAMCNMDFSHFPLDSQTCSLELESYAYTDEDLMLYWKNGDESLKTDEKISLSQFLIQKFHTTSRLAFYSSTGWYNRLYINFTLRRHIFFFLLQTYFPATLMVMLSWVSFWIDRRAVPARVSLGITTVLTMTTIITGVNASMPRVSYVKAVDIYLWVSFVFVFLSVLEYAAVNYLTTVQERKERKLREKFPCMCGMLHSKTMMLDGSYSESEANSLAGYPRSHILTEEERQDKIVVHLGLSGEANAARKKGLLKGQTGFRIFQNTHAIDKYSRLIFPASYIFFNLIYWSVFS

- EC50: 891 nM
Structure (SMILES): NCCCC(=O)O [GABA]
